For assay [1], the target named is T1, Beta-2 adrenergic receptor (Homo sapiens, UniProt P07550). The assay can be described thus: Displacement of [3H]-DHA from Nb80-fused beta2 adrenergic receptor (unknown origin) expressed in Sf9 cell membranes after 2 hrs by microbeta scintillation counting method.
Assay [2] deals with T1, Beta-2 adrenergic receptor. Put plainly: Displacement of [3H]-DHA from Nb69-fused beta2 adrenergic receptor (unknown origin) expressed in Sf9 cell membranes after 2 hrs by microbeta scintillation counting method.
Assay [3] deals with T1, Beta-2 adrenergic receptor. Put plainly: Ratio of Ki for Nb69-fused beta2 adrenergic receptor (unknown origin) to Ki for Nb80-fused beta2 adrenergic receptor (unknown origin).

pKi: −log10 of the molar value. Some results are limits rather than exact numbers.

Drawing on ChEMBL document CHEMBL4184219, “Binding-Site Compatible Fragment Growing Applied to the Design of β2-Adrenergic Receptor Ligands” (J Med Chem, 2018), this text covers Ki and Ratio Ki for 13 molecules.

T1 sequence (P07550 whole entry, looked up, the tested form may be a part): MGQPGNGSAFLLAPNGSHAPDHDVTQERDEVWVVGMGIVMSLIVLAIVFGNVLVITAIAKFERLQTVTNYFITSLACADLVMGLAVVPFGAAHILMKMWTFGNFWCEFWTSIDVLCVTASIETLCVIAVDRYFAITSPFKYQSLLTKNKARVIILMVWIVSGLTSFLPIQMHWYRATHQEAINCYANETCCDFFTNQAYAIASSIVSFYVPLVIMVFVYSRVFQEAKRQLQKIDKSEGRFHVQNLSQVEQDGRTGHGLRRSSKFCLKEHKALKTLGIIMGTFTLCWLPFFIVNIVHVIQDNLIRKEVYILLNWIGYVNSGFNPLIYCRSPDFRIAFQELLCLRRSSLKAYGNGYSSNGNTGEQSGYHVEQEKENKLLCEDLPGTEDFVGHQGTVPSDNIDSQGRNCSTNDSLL

Regarding `Cc1ccccc1C(C)NCc1ccc(-c2ncccn2)cc1` (centres undefined), the pKi was 5.36 in assay [1] and 3.57 in assay [2]. Also, in assay [3], the Ratio Ki turned out to be 61.

Turning to `COc1ccc2c(c1)c(CCNCc1cc(OC(F)(F)F)ccc1F)cn2C`, the values for the pKi in assay [1] and in assay [2] were 4.09 and 4.08, respectively. Besides, the Ratio Ki in assay [3] is 1.

Regarding `CC(NC1CC(c2ccc(F)cc2)C1)c1ccc(Cl)cc1` (centres undefined), the pKi in assay [1] is 5.10; in assay [2] it was 4.13. Besides, the Ratio Ki in assay [3] was 9.4.

Regarding `COc1ccc2c(c1)c(CCNCCCc1ccc(Cl)cc1)cn2C`, the pKi in assay [1] was 6.28; in assay [2], 5.41. Further, the Ratio Ki in assay [3] amounted to 7.5.

Take `NCc1ccc(-c2ncccn2)cc1`: the pKi in assay [1] was 4.11; in assay [2], less than 3.00. Further, the Ratio Ki in assay [3] is more than 91.

For `COc1ccc2c(c1)c(CCN)cn2C`, the pKi in assay [1] is 4.69; in assay [2], 4.44. Moreover, the Ratio Ki in assay [3] is 1.8.

For `OCC(NCc1ccc(-c2nccs2)cc1)c1ccco1` (centres undefined), the negative logarithm of the Ki (pKi) in assay [1] was 4.02; in assay [2] it was less than 3.00. In addition, in assay [3], the Ratio Ki is more than 51.

As for `CNCc1ccc(-c2nccs2)cc1`, the pKi was 4.47 in assay [1] and 3.44 in assay [2]. The Ratio Ki in assay [3] stood at 11.

In the case of `CC(N)c1ccc(Cl)cc1` (centres undefined), the results for the negative logarithm of the Ki (pKi) in assay [1] and in assay [2] were 4.47 and less than 3.00, respectively. In addition, the Ratio Ki in assay [3] was more than 61.

Regarding `C[C@H](CC(F)(F)F)NCc1ccc(-c2nccs2)cc1`, the results for the pKi in assay [1] and in assay [2] were 4.28 and 3.41, respectively. Besides, in assay [3], the Ratio Ki came out at 7.5.

As to `CC1(NCc2cc3ccccc3s2)COC1`, the negative logarithm of the Ki (pKi) in assay [1] and in assay [2] was less than 3.00 throughout. In addition, the Ratio Ki in assay [3] is more than 10.

Consider `CNCc1cc2ccccc2s1`, for which the pKi in assay [1] is 4.36; in assay [2], 3.43. In addition, in assay [3], the Ratio Ki came out at 8.6.

In the case of `COc1ccc2c(c1)c(CCNCCCc1cccc(C(F)(F)F)c1)cn2C`, the pKi in assay [1] is 4.98; in assay [2], 4.60. In addition, the Ratio Ki in assay [3] amounted to 2.4.
